Test results reported in PMC9356783, “Succinimide Derivatives as Antioxidant Anticholinesterases, Anti-α-Amylase, and Anti-α-Glucosidase: In Vitro and In Silico Approaches” (Evidence-based Complementary and Alternative Medicine : eCAM, 2022).
Several values for one entry are separate records, joined by “and”; a condition that tells them apart may be missing. Equal values may be shown once.

Tests used:
[1] = DPPH radical scavenging assay; conditions: for IC50: read-out: DPPH free radicals scavenging IC50
Method: A previously reported method for DPPH radical scavenging activity was used to determine the anti-oxidant activity of the synthetic compounds with insignificant modification. A solution of DPPH, e.g., (50 µL of 1.0 × 10^−3 M), was prepared freshly and then added to CH3OH (methyl alcohol). A solvent like methanol was used as a control group. The mixture was then incubated for 30 minutes at 25°C. A spectrophotometer is used to calculate the DPPH free radicals at specific wavelength like 517 nm. After the incubation period, Trolox (drug) was used as the control group (positive). The anti-oxidant activity was determined using the following formula:(1) Percent Inhibition=Absorbancecontrol−Absorbancetest sample/Absorbancecontrol×100.

[2] = ABTS radical scavenging assay; conditions: for IC50: read-out: ABTS free radicals scavenging IC50
Method: A previously reported method for ABTS radical scavenging assay was used to determine the anti-oxidant activity of the synthetic compounds with negligible modification. The stock solution was prepared, e.g., 7 mM ABTS solution and 2.4 mM of potassium persulfate solution, and then mixed in equal amounts for about 16 hours. The stock solution was then diluted with methyl alcohol. Using a spectrophotometer, the absorption (0.7 ± 0.02) units at 734 nm wavelength were identified. In this assay, the solution was prepared freshly. The ABTS solution (150 µl) was mixed with the synthesized compounds (50 µl) and then reserved in darkness for about 10 minutes. The same procedure was repeated 3 times and then the results were verified using mean ± standard deviation. A solvent, e.g., methanol, was used as blank and the standard (butyl hydroxytoluen in methanol) were run at the same time. The absorbance was checked at a wavelength of 734 nm by utilizing a microplate reader.

α-glucosidase = α-glucosidase (Saccharomyces cerevisiae, UniProt P53341); assay: α-Glucosidase inhibitory assay; assay type: biochemical
Chain of α-glucosidase (P53341 whole entry): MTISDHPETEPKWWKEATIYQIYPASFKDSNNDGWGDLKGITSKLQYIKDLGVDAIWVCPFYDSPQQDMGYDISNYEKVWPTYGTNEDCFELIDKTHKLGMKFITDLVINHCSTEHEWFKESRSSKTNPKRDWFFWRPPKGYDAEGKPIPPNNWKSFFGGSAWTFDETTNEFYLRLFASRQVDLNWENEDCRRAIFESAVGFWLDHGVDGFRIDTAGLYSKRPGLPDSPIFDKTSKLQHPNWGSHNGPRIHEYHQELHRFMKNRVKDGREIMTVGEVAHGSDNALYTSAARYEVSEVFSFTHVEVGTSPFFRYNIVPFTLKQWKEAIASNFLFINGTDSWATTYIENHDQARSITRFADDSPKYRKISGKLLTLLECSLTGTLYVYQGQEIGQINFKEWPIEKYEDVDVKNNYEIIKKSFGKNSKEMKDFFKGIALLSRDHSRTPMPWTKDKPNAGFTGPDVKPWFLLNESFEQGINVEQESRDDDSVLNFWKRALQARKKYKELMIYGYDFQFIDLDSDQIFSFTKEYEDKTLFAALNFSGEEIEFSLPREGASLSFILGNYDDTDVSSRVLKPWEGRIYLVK
Method: In this assay, glucopyranoside is added to the solvent (phosphate buffer). Various concentrations of the synthetized compounds like 500, 250, 125, 62.5, and 31.25 µg/ml were used for preparing the sample solutions. Glucosidase in distilled water (0.5 µg/ml) was added to the above mixture. This mixture was then incubated for 20 minutes at 37°C [36]. After the incubation period, the reaction mixture was ceased by the addition of hydrochloric acid. The color intensity was determined at 540 nm wavelength using a spectrophotometer. The formula which was used to determine percentage inhibition is:(3) Percent Inhibition=AbsorbanceControl−AbsorbanceSample/Absorbance Control×100.

α-amylase = target: T1, α-amylase (Sus scrofa, UniProt P00690); assay: In vitro α-amylase inhibition assay; assay type: biochemical
T1 sequence (P00690 16-511): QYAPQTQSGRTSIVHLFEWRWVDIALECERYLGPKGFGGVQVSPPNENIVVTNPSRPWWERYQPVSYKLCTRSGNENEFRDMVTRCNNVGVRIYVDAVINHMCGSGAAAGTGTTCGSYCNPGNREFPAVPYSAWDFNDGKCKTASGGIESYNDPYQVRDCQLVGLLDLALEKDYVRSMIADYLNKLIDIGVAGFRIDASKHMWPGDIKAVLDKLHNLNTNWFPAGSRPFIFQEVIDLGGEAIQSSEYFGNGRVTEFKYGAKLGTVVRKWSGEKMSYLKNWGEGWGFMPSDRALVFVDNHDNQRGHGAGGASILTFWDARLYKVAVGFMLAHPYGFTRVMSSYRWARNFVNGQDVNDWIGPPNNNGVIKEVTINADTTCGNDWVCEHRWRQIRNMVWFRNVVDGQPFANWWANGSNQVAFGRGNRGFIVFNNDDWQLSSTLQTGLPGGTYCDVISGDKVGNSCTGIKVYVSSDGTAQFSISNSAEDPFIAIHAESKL
Method: In this assay, previously documented protocols were used. […] Starch solution was then mixed with the above solution and then incubated for about 20 minutes at 37°C. After incubation, the reactant mixture was then kept in a water bath for some time at 100°C. Color intensity was measured using a microplate reader at 656 nm. To determine percentage inhibition, the following formula was used:(4) Percent Inhibition=AbsorbanceControl−AbsorbanceSample/Absorbance Control×100.

[3] = target: T2, acetylcholinesterase (AChE) (Electrophorus electricus, UniProt O42275); assay: biochemical; assay type: biochemical
T2 construct: (AChE) acetylcholinesterase from electric eel; purchased Sigma Aldrich (local seller); host or cells: electric eel (natural source)
T2 sequence (O42275 24-633): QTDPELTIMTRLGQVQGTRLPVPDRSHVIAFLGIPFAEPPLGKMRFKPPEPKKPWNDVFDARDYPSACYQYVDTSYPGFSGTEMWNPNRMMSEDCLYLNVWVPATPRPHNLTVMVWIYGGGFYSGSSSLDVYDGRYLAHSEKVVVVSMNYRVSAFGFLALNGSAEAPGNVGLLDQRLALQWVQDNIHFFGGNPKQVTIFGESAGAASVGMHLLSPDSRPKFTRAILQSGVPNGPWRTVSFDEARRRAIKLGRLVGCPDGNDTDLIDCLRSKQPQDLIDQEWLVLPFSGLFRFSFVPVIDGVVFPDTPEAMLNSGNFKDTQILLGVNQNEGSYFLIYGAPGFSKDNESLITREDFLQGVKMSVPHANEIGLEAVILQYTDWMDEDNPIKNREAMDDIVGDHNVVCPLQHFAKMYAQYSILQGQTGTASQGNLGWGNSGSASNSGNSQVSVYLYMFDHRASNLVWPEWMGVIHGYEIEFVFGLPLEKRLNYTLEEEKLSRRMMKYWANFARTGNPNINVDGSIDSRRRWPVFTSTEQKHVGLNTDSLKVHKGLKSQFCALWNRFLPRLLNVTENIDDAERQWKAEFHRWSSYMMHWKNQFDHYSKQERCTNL
Method: (§1) In Ellman's test, enzymes like (BChE) butyrylcholinesterase from equine serum and (AChE) acetylcholinesterase from electric eel were designated for studying the enzyme inhibitory capacity of the new synthesized compounds [33, 34].
(§2) Synthetic compounds in concentration ranging from 31.25 to 500 µg/ml, KH2PO4 (13.6 g/L) and K2HPO4 (17.4 g/L), were dissolved in 0.1 M phosphate buffer solution. After mixing, they were combined in 6 and 94% ratio, to make 0.1 M and 8.0 phosphate buffer solutions having […]. Potassium hydroxide was used to change the pH. The freshly prepared buffer […], AChE (518 U/mg solid), and BChE (7–16 U/mg) were diluted to achieve final absolute concentrations of 0.01 U/ml and 0.03 U/ml, respectively. In distilled water, BChI (0.0005 M), DTNB iedithio bis-nitrobenzoic acid solution (0.0002273 M), and AChI were prepared and then kept in the refrigerator [35].
(§3) After that, the substrate solution (5 μl) was added into the solution present in mixture form and was held in a water bath for 15 minutes at 30°C. Absorbance was measured at 412 nm using a double beam spectrophotometer. […] At 30°C, the absorbance and the time of the reaction were measured at 30°C for four minutes and repeated three times.

[4] = target: T3, butyrylcholinesterase (BChE) (Equus caballus, UniProt P81908); assay: biochemical; assay type: biochemical
T3 construct: (BChE) butyrylcholinesterase from equine serum; purchased Sigma Aldrich (local seller); host or cells: equine serum (natural source)
T3 sequence (P81908 whole entry): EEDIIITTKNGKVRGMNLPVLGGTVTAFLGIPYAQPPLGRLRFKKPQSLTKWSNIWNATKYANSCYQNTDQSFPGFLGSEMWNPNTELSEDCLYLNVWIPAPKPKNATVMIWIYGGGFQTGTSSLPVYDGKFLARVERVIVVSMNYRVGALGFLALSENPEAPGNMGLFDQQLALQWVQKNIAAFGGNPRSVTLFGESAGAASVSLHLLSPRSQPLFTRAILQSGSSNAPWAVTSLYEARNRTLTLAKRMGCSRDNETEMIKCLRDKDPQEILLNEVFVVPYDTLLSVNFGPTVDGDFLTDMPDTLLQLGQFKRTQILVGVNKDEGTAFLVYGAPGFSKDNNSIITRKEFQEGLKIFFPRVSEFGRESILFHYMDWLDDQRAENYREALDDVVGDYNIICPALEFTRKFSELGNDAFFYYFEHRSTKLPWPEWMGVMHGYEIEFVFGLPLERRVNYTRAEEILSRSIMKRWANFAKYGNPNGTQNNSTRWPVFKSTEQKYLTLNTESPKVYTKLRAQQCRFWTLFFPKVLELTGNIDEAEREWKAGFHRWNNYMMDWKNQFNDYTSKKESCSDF
Method: as §1, §2, §3

[5] = fifth value of series, presumably 31.25
[6] = first value of series, concentration not given (method 31.25 to 500 µg/ml)
[7] = fourth value of series, presumably 62.5
[8] = second value of series, presumably 250
[9] = third value of series, presumably 125
[10] = 500 μmol/mL (first value of the series)

In the case of `O=C1CCCCCC1C1CC(=O)N(c2ccccc2)C1=O` (centres unmarked) [MSJ7, 3-(2-oxocycloheptyl)-1-phenylpyrrolidine-2,5-dione], the IC50 [1] is reported as 31.4 µM and the IC50 [2] is reported as 36.3 µM.
With `O=C1CCCC1C1CC(=O)N(c2ccccc2)C1=O` (centres unmarked) [MSJ8, 3-(2-oxocyclopentyl)-1-phenylpyrrolidine-2,5-dione] the IC50 [1] was 29.2 µM and the IC50 [2] was 25.2 µM.
Compound `C[C@H]1O[C@H](O[C@H]2[C@H](O)[C@@H](O)[C@@H](O[C@H]3[C@H](O)[C@@H](O)C(O)O[C@@H]3CO)O[C@@H]2CO)[C@H](O)[C@@H](O)[C@@H]1N[C@H]1C=C(CO)[C@@H](O)[C@H](O)[C@H]1O` (some centres unmarked) [Acarbose] has a α-glucosidase % inhibition (α-glucosidase; 31.25 µmol/mL) of 71.22 ± 0.47%, a α-glucosidase % inhibition (α-glucosidase; 62.5 µmol/mL) of 76.44 ± 0.28% and a α-glucosidase % inhibition (α-glucosidase; 125 µmol/mL) of 80.90 ± 1.11%. The α-glucosidase % inhibition (α-glucosidase; 250 µmol/mL) was 85.03 ± 2.16%, the α-glucosidase % inhibition (α-glucosidase; 500 µmol/mL) was 94.40 ± 0.03% and the α-amylase percent inhibition (α-amylase; 31.25 µmol/mL) was 75.45 ± 0.90%. For the same compound, the α-amylase percent inhibition (α-amylase; 62.5 µmol/mL) was 77.61 ± 0.43%, the α-amylase percent inhibition (α-amylase; 125 µmol/mL) was 82.40 ± 0.20% and the α-amylase percent inhibition (α-amylase; 500 µmol/mL) was 91.90 ± 0.96%.
`CC1CCC(=O)C(C2CC(=O)N(c3ccccc3)C2=O)C1` (centres unmarked) [MSJ4, 3-(5-methyl-2-oxocyclohexyl)-1-phenylpyrrolidine-2,5-dione] gave an IC50 [1] of 32 µM and an IC50 [2] of 48.7 µM.
`O=C1CCCCC1C1CC(=O)N(c2ccccc2)C1=O` (centres unmarked) [MSJ1, 3-(2-oxocyclohexyl)-1-phenylpyrrolidine-2,5-dione] gave an IC50 [1] of 34.6 µM and an IC50 [2] of 29.4 µM.
In the case of `CC(=O)C(C)(C)C1CC(=O)N(c2ccccc2)C1=O` (centres unmarked) [MSJ10, 3-(2-methyl-3-oxobutan-2-yl)-1-phenylpyrrolidine-2,5-dione], the “percent radical scavenging (DPPH)” value ([1]; 62.5 μmol/mL (fourth value)) is reported as 79.67 ± 0.61%, the “percent radical scavenging (DPPH)” value ([1]; 125 μmol/mL (third value)) is reported as 85.79 ± 0.63% and the “percent radical scavenging (DPPH)” value ([1]; 250 μmol/mL (second value)) is reported as 90.90 ± 0.48%. For the same compound, the IC50 [1] was 2.52 µM, the “percent inhibitions (ABTS)” value ([2]; 62.5 µmo/mL (fourth value)) was 79.67 ± 0.61% and the “percent inhibitions (ABTS)” value ([2]; 125 µmo/mL (third value)) was 85.79 ± 0.63%. For the same compound, the “percent inhibitions (ABTS)” value ([2]; 250 µmo/mL (second value)) was 90.90 ± 0.48%, the IC50 [2] was 3.29 µM and the “percent anti-AChE potential” value [3, 5] was 78.58 ± 1.12%. The “percent anti-AChE potential” value [3, 6] was 93.20% and 93.20 ± 0.10%, the “percent anti-AChE potential” value [3, 7] was 83.40 ± 0.25% and the IC50 ([3]; read-out: IC50 against AChE) was 4.97 µM. The “percent anti-AChE potential” value [3, 8] was 90.09 ± 0.32%, the “percent anti-AChE potential” value [3, 9] was 88.67 ± 1.20% and the “percent anti-BChE potential” value [4, 5] was 73.89 ± 0.49%. For the same compound, the “percent anti-BChE potential” value [4, 6] was 91.36% and 91.36 ± 0.39%, the “percent anti-BChE potential” value [4, 7] was 78.26 ± 0.43% and the IC50 ([4]; read-out: IC50 against BChE) was 10.7 µM. For the same compound, the “percent anti-BChE potential” value [4, 8] was 87.15 ± 1.07% and the “percent anti-BChE potential” value [4, 9] was 83.00 ± 0.44%.
With `O=C1O[C@H]([C@@H](O)CO)C(O)=C1O` [Ascorbic acid, reference compound] the “percent radical scavenging (DPPH)” value ([1]; 31.25 μmol/mL (fifth value)) was 86.42 ± 0.43%, the “percent radical scavenging (DPPH)” value ([1]; 62.5 μmol/mL (fourth value)) was 88.22 ± 1.28% and the “percent radical scavenging (DPPH)” value ([1]; 125 μmol/mL (third value)) was 91.52 ± 0.66%. For the same compound, the “percent radical scavenging (DPPH)” value ([1]; 250 μmol/mL (second value)) was 93.56 ± 0.45%, the “percent radical scavenging (DPPH)” value [1, 10] was 98.65 ± 1.32% and the IC50 [1] was 6.25 µM. The IC50 [2] was 4.66 µM.
Compound `CC1CCC(=O)C(C2CC(=O)N(Cc3ccccc3)C2=O)C1` (centres unmarked) [MSJ5, 1-benzyl-3-(5-methyl-2-oxocyclohexyl)pyrrolidine-2,5-dione] has an IC50 [1] of 39 µM and an IC50 [2] of 51.2 µM.
Compound `O=C1CCOCC1C1CC(=O)N(c2ccccc2)C1=O` (centres unmarked) [MSJ6, 3-(4-oxotetrahydro-2H-pyran-3-yl)-1-phenylpyrrolidine-2,5-dione] has an IC50 [1] of 44.9 µM and an IC50 [2] of 55.1 µM.
Compound `CC(=O)CC1CC(=O)N(c2ccccc2)C1=O` (centres unmarked) [MSJ9, 3-(2-oxopropyl)-1-phenylpyrrolidine-2,5-dione] has an IC50 [1] of 53 µM and an IC50 [2] of 38.1 µM.
Work on `O=C1CCCCC1C1CC(=O)N(c2ccc(Br)cc2)C1=O` (centres unmarked) [MSJ3, 1-(4-bromophenyl)-3-(2-oxocyclohexyl) pyrrolidine-2,5-dione] yielded an IC50 [1] of 33.5 µM and an IC50 [2] of 24 µM.
In the case of `O=C1CCCCC1C1CC(=O)N(Cc2ccccc2)C1=O` (centres unmarked) [MSJ2, 1-benzyl-3-(2-oxocyclohexyl) pyrrolidine-2,5-dione], the “percent radical scavenging (DPPH)” value ([1]; 31.25 μmol/mL (fifth value)) is reported as 73.45 ± 0.65%, the “percent radical scavenging (DPPH)” value ([1]; 62.5 μmol/mL (fourth value)) is reported as 78.23 ± 0.44% and the “percent radical scavenging (DPPH)” value ([1]; 125 μmol/mL (third value)) is reported as 81.50 ± 0.61%. The “percent radical scavenging (DPPH)” value ([1]; 250 μmol/mL (second value)) was 84.47 ± 0.46%, the “percent radical scavenging (DPPH)” value [1, 10] was 86.47 ± 0.70% and the IC50 [1] was 2.59 µM. The “percent inhibitions (ABTS)” value ([2]; 31.25 µmo/mL (fifth value)) was 74.65 ± 1.34%, the IC50 [2] was 7.32 µM and the “percent anti-AChE potential” value [3, 6] was 91.90%. The “percent anti-BChE potential” value [4, 6] was 97.30%.
